Experimental data: US8853215B2, “Derivatives of N-acyl-N′-phenylpiperazine useful (inter alia) for the prophylaxis or treatment of diabetes” (Takeda Pharmaceutical Company Limited, priority 2009, dated 2014)

Target: RBP4 (Mus musculus (Mouse), UniProt Q00724)
Assay: Single administration test in mice, plasma RBP4 by ELISA
Type: in vivo
Conditions: male C57BL/6J or ICR mice, 50 mg/kg oral single dose, mean±SD
In short: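 Male 6–12-week-old C57BL/6J or ICR mice on CE2 diet received compound orally at 50 mg/10 mL/kg in 0.5% methylcellulose (3–5 per group). Plasma sampled at 0, 4, 7 and 24 hr post-dose; RBP4 measured by sandwich ELISA (OD 450 nm) against mouse recombinant RBP4 standards, expressed as % of initial/Control.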

CC(C)(C)c1ccccc1N1CCN(C(=O)C(=O)O)CC1 [Example 44, 2-[4-(2-tert-Butylphenyl)piperazin-1-yl]-2-oxoacetic acid]
RBP4 (% of initial/Control) 0 hr (0 hr (just before the administration)): 100.0 ± 25.0 % of initial/Control | RBP4 (% of initial/Control) 4 hr (4 hr after administration): 52.4 ± 2.8 % of initial/Control | RBP4 (% of initial/Control) 7 hr (7 hr after administration): 50.2 ± 0.9 % of initial/Control | RBP4 (% of initial/Control) 24 hr (24 hr after administration): 145.9 ± 19.6 % of initial/Control
